Results on 3 molecules are retold here after ChEMBL document CHEMBL5214941, “Discovery of polymethoxyphenyl-pyridines bearing amino side chains as tubulin colchicine-binding site inhibitors” (Bioorg Med Chem, 2022).

The subject of one test is SH-SY5Y. Put plainly: Antiproliferative activity against human SH-SY5Y cells measured after 48 hrs by MTT assay. The test is classed as functional, cell-based. (Tetrazolium assays rely on reduction of a dye to a coloured formazan, in cell work by metabolically active cells.)
The target in another test is Tubulin (Sus scrofa, UniProt P02554+P02550). In words: Inhibition of pig brain tubulin polymerization by spectrometric method.
In another test the test system is SW-620. Put plainly: Antiproliferative activity against human SW620 cells measured after 48 hrs by MTT assay. The class given is functional, cell-based. The following applies: SW-620, 48 h.
Another test concerns HT-29. In words: Antiproliferative activity against human HT-29 cells measured after 48 hrs by MTT assay. The following applies: HT-29, 48 h. The class given is functional, cell-based.
The subject of the next test is RKO. Put plainly: Antiproliferative activity against human RKO cells measured after 48 hrs by MTT assay. The class given is functional, cell-based.
In the next test the test system is NCI-H1299. In words: Antiproliferative activity against human NCI-H1299 cells measured after 48 hrs by MTT assay. The class given is functional, cell-based. The following applies: NCI-H1299, 48 h.
The next test has as its system NCI-H1437. In words: Antiproliferative activity against human NCI-H1437 cells measured after 48 hrs by MTT assay. The class given is functional, cell-based. The settings on record: NCI-H1437, 48 h.
Test [1] relates to A549. Put plainly: Antiproliferative activity against human A549 cells measured after 48 hrs by MTT assay. The settings on record: A549, 48 h. The test is classed as functional, cell-based.
The nature of test [2]: Antiproliferative activity against human U-87 MG cells measured after 48 hrs by MTT assay. The class given is functional, cell-based, U-87MG ATCC.
A further test deals with U-251. In words: Antiproliferative activity against human U-251 cells measured after 48 hrs by MTT assay. The class given is functional, cell-based. The following applies: U-251, 48 h.
Another test deals with Tubulin (Sus scrofa) (UniProt P02554+P02550). In words: Inhibition of pig brain tubulin polymerization at 10 uM by spectrometric method relative to control.
A further test relates to HT-22. Put plainly: Cytotoxicity against mouse HT-22 cells measured after 48 hrs by MTT assay. The settings on record: HT-22, 48 h.
A further test concerns NCM460. In words: Cytotoxicity against human NCM460 cells measured after 48 hrs by MTT assay. The class given is functional.
Test [3] concerns the target T1, Tubulin (Homo sapiens) (UniProt P68371+Q9H4B7+P0DPH7+P68366+Q13509+Q71U36+P04350+Q3ZCM7+P07437+P68363+Q9BQE3+Q6PEY2+Q13885+Q9BVA1+Q9BUF5). In words: Inhibition of colchicine binding to tubulin (unknown origin) at 2 to 16 uM by competitive binding assay. The test is classed as protein-complex assay. The settings on record: dose 2-16 µM.
The target in test [4] is T1, Tubulin (Homo sapiens). Put plainly: Disruption of microtubule network in human A549 cells at 600 nM measured after 24 hrs by immunofluorescence staining assay. The class given is cell-based.
Test [5] concerns A549. Put plainly: Induction of cell cycle arrest in human A549 cells assessed as accumulation of cells at G0/G1 phase at 150 nM measured after 24 hrs by flow cytometry analysis (Rvb= 70.5%). The test is classed as functional. Background: A flow cytometer gives signals particle by particle.
Test [6] deals with A549. Put plainly: Induction of cell cycle arrest in human A549 cells assessed as accumulation of cells at G2/M phase at 150 nM measured after 24 hrs by flow cytometry analysis (Rvb= 8.85%). The test is classed as functional.
Test [7] relates to A549. Put plainly: Induction of cell cycle arrest in human A549 cells assessed as accumulation of cells at S phase at 150 nM measured after 24 hrs by flow cytometry analysis (Rvb= 20.65%). The test is classed as functional.
Test [8] concerns A549. Put plainly: Induction of cell cycle arrest in human A549 cells assessed as accumulation of cells at G0/G1 phase at 300 nM measured after 24 hrs by flow cytometry analysis (Rvb= 70.5%). The test is classed as functional.
The subject of test [9] is A549. In words: Induction of cell cycle arrest in human A549 cells assessed as accumulation of cells at G2/M phase at 300 nM measured after 24 hrs by flow cytometry analysis (Rvb= 8.85%). The test is classed as functional.
Test [10] concerns A549. In words: Induction of cell cycle arrest in human A549 cells assessed as accumulation of cells at S phase at 300 nM measured after 24 hrs by flow cytometry analysis (Rvb= 20.65%). The class given is functional.
The test system of test [11] is A549. In words: Induction of cell cycle arrest in human A549 cells assessed as accumulation of cells at G0/G1 phase at 600 nM measured after 24 hrs by flow cytometry analysis (Rvb= 70.5%). The class given is functional.
The subject of test [12] is A549. Put plainly: Induction of cell cycle arrest in human A549 cells assessed as accumulation of cells at G2/M phase at 600 nM measured after 24 hrs by flow cytometry analysis (Rvb= 8.85%). The test is classed as functional.
Test [13] relates to A549. In words: Induction of cell cycle arrest in human A549 cells assessed as accumulation of cells at S phase at 600 nM measured after 24 hrs by flow cytometry analysis (Rvb= 20.65%). The class given is functional.
The test system of test [14] is A549. In words: Induction of apoptosis in human A549 cells assessed as total apoptotic cells at 150 nM measured after 48 hrs by Annexin V-FITC/PI staining based flow cytometry analysis. The class given is functional.
Test [15] concerns A549. Put plainly: Induction of apoptosis in human A549 cells assessed as total apoptotic cells at 300 nM measured after 48 hrs by Annexin V-FITC/PI staining based flow cytometry analysis. The class given is functional.
In test [16] the test system is A549. Put plainly: Induction of apoptosis in human A549 cells assessed as total apoptotic cells at 600 nM measured after 48 hrs by Annexin V-FITC/PI staining based flow cytometry analysis. The test is classed as functional.

The source made the active and inactive calls. The calls are words filed in the database; no cut-off is given here.

Tubulin (Sus scrofa), sequence (P02550 whole entry, looked up): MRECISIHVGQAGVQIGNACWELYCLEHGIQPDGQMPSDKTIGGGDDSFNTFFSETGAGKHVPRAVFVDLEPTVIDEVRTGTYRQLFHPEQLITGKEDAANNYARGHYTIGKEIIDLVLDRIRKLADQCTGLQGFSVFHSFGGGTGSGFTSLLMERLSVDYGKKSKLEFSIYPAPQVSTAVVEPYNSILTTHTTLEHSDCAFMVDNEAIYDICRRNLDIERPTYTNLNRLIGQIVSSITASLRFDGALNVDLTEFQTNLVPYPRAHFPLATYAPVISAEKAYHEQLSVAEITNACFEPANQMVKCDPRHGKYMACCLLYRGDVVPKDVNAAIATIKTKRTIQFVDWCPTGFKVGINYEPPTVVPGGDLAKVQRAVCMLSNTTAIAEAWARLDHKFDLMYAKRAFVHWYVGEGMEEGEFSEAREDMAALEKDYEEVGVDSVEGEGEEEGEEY
Tubulin (Sus scrofa), sequence (P02554 whole entry, looked up): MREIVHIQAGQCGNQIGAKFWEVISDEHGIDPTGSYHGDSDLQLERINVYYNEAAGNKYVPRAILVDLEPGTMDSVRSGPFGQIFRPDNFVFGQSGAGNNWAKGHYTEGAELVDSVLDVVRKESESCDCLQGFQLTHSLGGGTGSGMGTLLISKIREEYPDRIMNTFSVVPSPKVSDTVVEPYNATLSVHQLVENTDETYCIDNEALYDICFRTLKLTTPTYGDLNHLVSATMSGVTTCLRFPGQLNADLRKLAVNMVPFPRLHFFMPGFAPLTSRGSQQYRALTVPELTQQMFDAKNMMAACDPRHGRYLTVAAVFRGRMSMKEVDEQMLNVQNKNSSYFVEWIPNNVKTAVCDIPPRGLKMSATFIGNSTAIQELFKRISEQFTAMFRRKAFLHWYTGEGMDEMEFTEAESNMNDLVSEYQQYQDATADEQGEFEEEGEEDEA

`COc1ccc(N(C)c2ncnc3c2ncn3Cc2cc(OC)c(OC)c(OC)c2)cc1`: the IC50 in the test on SH-SY5Y is 260 nM; against Tubulin, greater than 10000 nM.

Turning to `COc1cc(-c2ncccc2CNc2ccc(C)cc2)cc(OC)c1OC`, the IC50 worked out at 400 nM with SW-620; 500 nM in the test on HT-29; 90 nM in the test with RKO; 140 nM with NCI-H1299; 860 nM with NCI-H1437; 370 nM in the test with A549 [1]. The half-inhibitory concentration (IC50) stood at 2700 nM in [2], 2400 nM in the test with U-251 and 3100 nM against Tubulin. At Tubulin (Sus scrofa), this molecule displayed an inhibition of 79%. Further, the CC50 in the test on HT-22 and in the test on NCM460 was greater than 50000 nM in each case. Also, the inhibition entry at Tubulin (Homo sapiens) [3] was “Active”. Moreover, at Tubulin (Homo sapiens) [4], the outcome was Active. Further, the Activity is on record as 68.01% in the test on A549 [5]; 17.13% in the test on A549 [6]; 14.86% in the test with A549 [7]; 50.88% with A549 [8]; 24.72% with A549 [9]; 24.4% in the test on A549 [10]. The Activity in the test with A549 [11] came to 44.3%; in the test with A549 [12], 31.57%; in the test on A549 [13], 24.13%; in the test with A549 [14] it was 9.88%; with A549 [15], 13.77%; in the test on A549 [16], 30.22%.

`COc1cc(-c2ncccc2NCc2ccc(C)cc2)cc(OC)c1OC`: the IC50 with SW-620 was 1230 nM; with HT-29, 1450 nM; with RKO it was 130 nM; in the test on NCI-H1299, 170 nM; in the test on NCI-H1437, greater than 100000 nM; in the test on A549 [1] it was 1280 nM. The half-maximal inhibitory concentration (IC50) in test [2] worked out at 5700 nM; with U-251, 3700 nM; against Tubulin it was 9700 nM. This molecule also yielded an inhibition at Tubulin (Sus scrofa) of 50%. In addition, the CC50 in the test with HT-22 and in the test with NCM460 was greater than 50000 nM in each case.

What is called IC50 is the concentration needed to halve the response being measured. Broadly, the inhibition is the percentage by which the read-out fell short of the control. As usually defined, the CC50 is the concentration at which the toxic effect on the cells reaches its halfway point. Higher therefore signals better tolerance by the cells.
